In US20150182586A1, “DAIRY FARM TEAT DIP COMPOSITIONS AND METHODS” (Advanced BioCatalytics Corporation, priority 2013, published 2015):

System: mastitis
Assay: Teat dip field test, Dairy 3 (spray, raw milk dairy, 6 week test period)
Assay type: in vivo
Settings: Dairy 3, pre and post milking; chlorine dioxide on cows without previous mastitis (Pens 0, 1, 3, 5), Example 1 on cows with previous mastitis (Pen 7)
From the text: Dairy 3 produces raw milk and uses a spray method for applying teat dips. A key factor to note is that Example 1 was used on cows that previously had mastitis. The results of Table 5 compare using chlorine dioxide on cows that had not had mastitis, to using Example 1 on cows that were more susceptible due to previous bouts with mastitis. Once a cow developed mastitis in Dairy 3, it is not used in the production of raw milk. […] Pen No's. 0, 1, 3 and 5 used chlorine dioxide for both pre and post milking. Pen No. 7 used Example 1 for the 6 week test period. In all pens, the cows were retained in pens with saw dust in between milking cycles to reduce the chance of spreading infectious disease.
The number of cows that were […] using the composition of Example 1, for both pre and post milking, during the 6 week test period was 5.3% as shown in Table 5. Table 6 defines the number of cows in each respective pen of Table 5.

[O][Cl+][O-] [chlorine dioxide]
cows that developed mastitis during the 6 week test period: 5.7%
